The nature of data set [1]: In vivo pharmacokinetics after oral (intragastric) administration to rats. As to conditions: rat. The procedure: Derivative 2 was administered to overnight-fasted male Wistar rats from the facility of the Department of Biomedical Sciences as a single intragastric dose (88 µmol/kg, dissolved in 250 µL water). Blood samples were obtained by the tail bleeding technique: before drug administration, rats were anesthetised with isoflurane and the tip of the tail was cut off; blood samples (80–100 µL each) were then taken from the tail tip at different time points after drug administration. Blood was collected in heparinised tubes, kept in ice and treated as described in [90] within 10 min.
For quantification purposes we assumed the same absorption coefficient.

Data set [2] has as its system explanted rat jejunum segments. As to the kind of experiment: Permeation across explanted rat jejunum segments in Ussing-type chambers (ex vivo).
Protocol: We assayed transport of the derivatives across explanted rat jejunum segments using Ussing-type chambers.
Intestine was excised from 18 h fasted rats and transferred into a saline solution (154 mM NaCl in water) at 37 °C. The jejunum was cut into 1 cm long strips, opened longitudinally, rinsed free of luminal content and mounted in Ussing-type chambers. Apical and basolateral compartments were filled with 1 mL each of oxygenated HEPES buffer (248 mM NaCl, 55.3 mM glucose, 50 mM NaHCO3, 9.9 mM KCl, 1.9 mM MgSO4, 40 mM HEPES, pH 6.8), and incubated in a water bath at 37 °C until all chambers were assembled (approximately 20 min). The buffer was then removed and substituted with 1 mL of a 20 µM solution (in the same buffer) of the compound to be tested on the apical side (dilution from a 20 mM stock solution), and with 1 mL of fresh HEPES buffer on the basolateral one. […] During the experiment, oxygen was continuously bubbled in each basolateral compartment. […]
Samples (2 µL) were analyzed by HPLC/UV (1290 Infinity LC System, Agilent Technologies) using a reverse phase column (Zorbax RRHD Eclipse Plus C18, 1.8 µm, 50 x 2.1 mm i.d.; Agilent Technologies) and a UV diode array detector (190-500 nm). […]

Take `CN(CCCCOC1C(O)C(O)OC(CO)C1O)C(=O)Oc1ccc(C=Cc2cc(OC(=O)N(C)CCCCOC3C(O)C(O)OC(CO)C3O)cc(OC(=O)N(C)CCCCOC3C(O)C(O)OC(CO)C3O)c2)cc1` [derivative 2, 3,4',5-Tri-[α/β-D-glucopyranose-3-(4-N-methyl-N-butoxy)]-resveratrol carbamate]: the Tmax in data set [1] (male, Wistar, whole blood, po, 88 umol/kg, single intragastric dose 88 µmol/kg, blood, read-out: time of maximum blood levels (converted)) is approximately 1 h. Moreover, the “concentration of the derivative in the bloodstream” value in data set [1] (gavage 88 µmol/kg, during the 4 hours following administration) is listed as “low concentrations”. Further, in data set [1] (oral, also basolateral chamber ex vivo), the “resveratrol and its common metabolites in blood after oral administration (hydrolysis of carbamate groups)” value was “Neither resveratrol nor its common metabolites were present in detectable amounts”. Further, the “species detected in the basolateral chamber” value in data set [2] (20 µM apical, 2.5 h) was “only the intact derivative was detected”. In data set [2] (comparison among conditions), the “extent of translocation with SGLT-1/GLUT-2 inhibitors (phlorizin, phloretin, cytochalasin B), low glucose, non-fasted or glucose-fed rats” value is “not to differ significantly”.

The values above are taken from publication PMC6271179 (Molecules, 2014).
